One experiment addresses TNFα (Homo sapiens, UniProt P01375). Nature of the experiment: Immunoassay binding test, TNFa. The note with it: compounds 100 to 0.78 μM; TNFα 10 ng/ml, receptor 100 ng/ml; read-out: BINDING TNF IC50. The method in brief:
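ELISA-type binding test: receptor-coated plates blocked with 2% BSA, then cytokine (six-point dilution series) preincubated 2 h at 37 °C and bound overnight at 4 °C. Detection used biotinylated anti-cytokine antibody and avidin-HRP, read as OD at 450 nm. For IL-6, IL-6Ra was present at 200 ng/ml final.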

In the next experiment the target is TNFa/TNFRI interaction (Homo sapiens, UniProt P01375). Kind of experiment: TNFa/TNFRI interaction displacement test.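 On Displacement EC50 TNFa in presence of compound: Difference: SPD304 reference at 20 µM final.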 The class given is binding. The note with it: for Displacement EC50 TNFa in presence of compound: Difference: Compound EC50 minus SPD304 EC50; for Displacement (%): compounds at 50 μM, human TNFRI 100 ng/ml. The method in brief:
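Plates coated overnight at 4° C with human TNFRI (100 ng/ml) and blocked with 2% BSA, then test mixtures were incubated overnight at 4° C. Bound cytokine detected with biotinylated anti-cytokine antibody (2 h, 37° C) and avidin-HRP, read as OD at 450 nm.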

A further experiment has as its target T1, IL-4 (Homo sapiens, UniProt P05112).
T1 sequence (P05112 25-153): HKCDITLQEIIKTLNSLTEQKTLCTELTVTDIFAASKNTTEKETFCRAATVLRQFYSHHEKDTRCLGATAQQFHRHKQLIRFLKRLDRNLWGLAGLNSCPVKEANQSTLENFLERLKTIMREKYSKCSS
Kind of experiment: Immunoassay binding test, IL-4. The note with it: for IC50: IL-4 400 ng/ml, receptor 100 ng/ml, read-out: BINDING IL4 IC50. The method, then:
(§1) Microtiter plates (96 wells) are covered with 100 μl of receptor per well, and incubated overnight at 4° C. The following day, after 2 washes in PBS/Tween20, the plates are saturated with 150 μl of PBS/BSA 2% per well, for 2 h at 37° C. Synthetic compounds are diluted in series (final concentrations: 100 to 0.78 μM) then a fixed amount of cytokine in PBS/BSA 1% is added to the compounds, in a final volume of 120 μl per well. […] The cytokine is diluted in series (six concentrations) in a final volume of 120 μl per well. The cytokine is used in the absence of small molecule as well as the range of SPD304 as positive controls and the absence of cytokine and synthetic molecule as negative control. The different mixtures are incubated for 2 h at 37° C. 100 μl of each mixture are then transferred to the microtiter plate, respecting the plate plan previously defined and incubated overnight at 4° C. After three washes, 100 μl of biotinylated anti-cytokine secondary antibody are added to each well, then incubated for 2 h at 37° C. After three washes, 100 μl of Avidin-HRP (1/500th dilution) are added and incubated for 30 minutes at 37° C. […] The plates are then read with a spectrophotometer at 450 nm, measuring the optical density for each well.
(§2) This binding test is carried out with different cytokines: TNFa, IL-4, IL-6 and IL-13. For IL-6, the incubation of molecules with the cytokine also requires the presence of IL-6Ra at a final concentration of 200 ng/ml.
(§3) The final concentrations used for each of the cytokines are presented below: […]

A further experiment deals with IL-13 (Homo sapiens, UniProt P35225). Nature of the experiment: Immunoassay binding test, IL-13. The note with it: for IC50: IL-13 400 ng/ml, receptor 100 ng/ml, read-out: BINDING IL13 IC50. As for the experimental part:
as §1, with “The cytokine is used in the absence of small molecule as well as the range of SPD304 as positive controls and the absence of cytokine and synthetic molecule as negative control.” left out
as §2, §3

The target of the next experiment is IL-6 (Homo sapiens, UniProt P05231). Kind of experiment: Immunoassay binding test, IL-6 (gp130 receptor, IL-6Ra present). The note with it: IL-6Ra 200 ng/ml. As for the experimental part: as §1, §2, §3
Sequence of IL-6 (P05231 30-212, species assumed): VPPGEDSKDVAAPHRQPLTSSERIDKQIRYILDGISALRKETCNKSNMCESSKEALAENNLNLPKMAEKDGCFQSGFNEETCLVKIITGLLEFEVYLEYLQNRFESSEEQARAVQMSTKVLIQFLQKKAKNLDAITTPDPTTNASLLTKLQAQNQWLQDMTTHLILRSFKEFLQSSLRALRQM

Molecules are shown by their SMILES.

We go through 14 molecules from US20230416239A1, “COMPOUNDS AND METHODS FOR TREATING A CYTOKINE-MEDIATED DISEASE” (CONSERVATOIRE NATIONAL DES ARTS ET MÉTIERS, priority 2020, published 2023).

In general, IC50 refers to the concentration at which inhibition is half-maximal.

Sequence of IL-13 (P35225 25-146, species assumed): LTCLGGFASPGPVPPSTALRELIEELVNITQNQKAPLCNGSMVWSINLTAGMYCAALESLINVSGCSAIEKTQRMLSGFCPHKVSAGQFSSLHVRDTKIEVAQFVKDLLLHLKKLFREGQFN
Sequence of TNFa/TNFRI interaction (P01375 77-233 limits assumed): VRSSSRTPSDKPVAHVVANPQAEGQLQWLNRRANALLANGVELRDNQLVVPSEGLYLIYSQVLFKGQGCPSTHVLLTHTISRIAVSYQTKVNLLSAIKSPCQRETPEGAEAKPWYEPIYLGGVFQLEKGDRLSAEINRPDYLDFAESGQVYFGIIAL
Sequence of TNFα (P01375 77-233 limits assumed, species assumed): as the sequence (P01375 77-233 limits assumed) above

`CN(CCCN(Cc1cccnc1)Cc1cn(S(=O)(=O)c2ccccc2)c2ccccc12)C1CCCCC1` [Compound 9]: the IC50 at TNFα was 7.3 µM. At TNFa/TNFRI interaction, the “Displacement EC50 TNFa in presence of compound: Difference” value (shortened to “Displacement EC50 TNFa … Difference”) came out at 4.3 ng/mL and the “Displacement (%)” value amounted to 175%. On IL-4, the “BINDING IL4 % Neutra at 100 μM” value is 94.4% and the IC50 was found to be 8 µM. At IL-13, the “BINDING IL13 % Neutra at 100 μM” value is reported as 59.7% and the IC50 was over 50 µM. Also, the “BINDING IL6 % Neutra at 100 μM” value at IL-6 came to 21%.

As for `CN(C)CCCCCN(Cc1cccc(F)n1)Cc1cn(S(=O)(=O)c2ccccc2)c2ccccc12` [Compound 90], the IC50 is 15.5 µM at TNFα, 5.2 µM on IL-4 and over 50 µM at IL-13. Moreover, the “Displacement (%)” value on TNFa/TNFRI interaction is recorded as 137%. The “BINDING IL4 % Neutra at 100 μM” value at IL-4 came to 94.0%. Further, the “BINDING IL13 % Neutra at 100 μM” value at IL-13 is reported as 69.7%. In addition, the “BINDING IL6 % Neutra at 100 μM” value on IL-6 came out at 0%.

Turning to `CCN(CCOCCN(Cc1cccnc1F)Cc1cn(S(=O)(=O)c2ccccc2)c2ccccc12)C1CCCCC1` [Compound 93, N-ethyl-N-(2-(2-(((2-fluoropyridin-3-yl)methyl)((1-(phenylsulfonyl)-1H-indol-3-yl)methyl)amino)ethoxy)ethyl)cyclohexanamine], on TNFα, the IC50 worked out at 11.2 µM. Further, on TNFa/TNFRI interaction, the “Displacement (%)” value was 160%. Moreover, at IL-4, the “BINDING IL4 % Neutra at 100 μM” value stood at 89.8% and the IC50 came to 2.8 µM. Further, at IL-13, the “BINDING IL13 % Neutra at 100 μM” value is listed as 91.3% and the IC50 is 7.8 µM. The “BINDING IL6 % Neutra at 100 μM” value on IL-6 was 0%.

Take `CN(CCCCN(Cc1cccnc1F)Cc1cn(C)c2ccccc12)C1CCCCC1` [Compound 95]: the IC50 at TNFα and on IL-4 was over 50 µM each time. The “Displacement (%)” value on TNFa/TNFRI interaction came to 16%. In addition, the “BINDING IL4 % Neutra at 100 μM” value at IL-4 is reported as 75.3%. At IL-13, the “BINDING IL13 % Neutra at 100 μM” value amounted to 0%. Further, on IL-6, the “BINDING IL6 % Neutra at 100 μM” value amounted to 0%.

With `O=S(=O)(c1ccccc1)n1cc(CN(Cc2ccccn2)CC2CCCN(C3CCCCC3)C2)c2ccccc21` (stereo not shown) [Compound 1], the IC50 at TNFα is 11.9 µM. For the same molecule, on TNFa/TNFRI interaction, the “Displacement EC50 TNFa … Difference” value came out at 9.1 ng/mL and the “Displacement (%)” value was 178%. Further, at IL-4, the “BINDING IL4 % Neutra at 100 μM” value was found to be 97.5% and the 50% inhibitory concentration (IC50) worked out at 4.1 µM. Besides, at IL-13, the “BINDING IL13 % Neutra at 100 μM” value is reported as 94.6% and the IC50 came out at 23.5 µM. Besides, the “BINDING IL6 % Neutra at 100 μM” value at IL-6 turned out to be 5.5%.

Consider `CN1CCN(C(=O)NCCCCN(Cc2cccnc2F)Cc2cn(S(=O)(=O)c3ccccc3)c3ccccc23)CC1` [Compound 83], for which, at TNFα, the half-maximal inhibitory concentration (IC50) turned out to be 21 µM. At TNFa/TNFRI interaction, the “Displacement (%)” value is recorded as 93%. At IL-4, the “BINDING IL4 % Neutra at 100 μM” value is given as 84.6% and the IC50 is over 50 µM. At IL-13, the “BINDING IL13 % Neutra at 100 μM” value came to 1%. The “BINDING IL6 % Neutra at 100 μM” value at IL-6 stood at 0%.

Consider `CN(CCCCN(Cc1ccnc(F)c1)Cc1cn(S(=O)(=O)c2ccccc2)c2ccccc12)C1CCCCC1` [Compound 50, N1-cyclohexyl-N4-((2-fluoropyridin-4-yl)methyl)-N1-methyl-N4-((1-(phenylsulfonyl)-1H-indol-3-yl)methyl)butane-1,4-diamine], for which the values for the half-maximal inhibitory concentration (IC50) at TNFα, on IL-4 and on IL-13 were 7.2 µM, 6.3 µM and 26.2 µM, respectively. In addition, the “Displacement (%)” value at TNFa/TNFRI interaction was found to be 138%. Besides, at IL-4, the “BINDING IL4 % Neutra at 100 μM” value is recorded as 90.6%. For the same molecule, the “BINDING IL13 % Neutra at 100 μM” value at IL-13 was 90.3%. Moreover, the “BINDING IL6 % Neutra at 100 μM” value on IL-6 was 0%.

As to `CCn1cc(CN(CCCCN(C)C2CCCCC2)Cc2cccnc2F)c2ccccc21` [Compound 96], the values for the IC50 on TNFα and on IL-4 were over 50 µM and 62.3 µM, respectively. In addition, the “Displacement (%)” value on TNFa/TNFRI interaction was 26%. Besides, the “BINDING IL4 % Neutra at 100 μM” value on IL-4 stood at 74.5%. Further, the “BINDING IL13 % Neutra at 100 μM” value at IL-13 was found to be 0%. The “BINDING IL6 % Neutra at 100 μM” value on IL-6 is listed as 1%.

With `FC(F)(F)c1cccc(-n2cc(CN(CCNC3CCCCC3)Cc3cccnc3)c3ccccc32)c1` [Compound 30], the IC50 at TNFα is 19.9 µM; at IL-4, 4 µM; at IL-13 it was over 50 µM. Also, the “Displacement (%)” value at TNFa/TNFRI interaction is reported as 106%. In addition, the “BINDING IL4 % Neutra at 100 μM” value on IL-4 is given as 97.3%. In addition, at IL-13, the “BINDING IL13 % Neutra at 100 μM” value is on record as 93.6%. Also, at IL-6, the “BINDING IL6 % Neutra at 100 μM” value is 16.8%.

For `O=C(NCCCCN(Cc1cccnc1F)Cc1cn(S(=O)(=O)c2ccccc2)c2ccccc12)N1CCOCC1` [Compound 84], at TNFα, the half-inhibitory concentration (IC50) was 21.2 µM. Besides, the “Displacement (%)” value on TNFa/TNFRI interaction stood at 111%. For the same molecule, at IL-4, the “BINDING IL4 % Neutra at 100 μM” value is 0%. In addition, on IL-13, the “BINDING IL13 % Neutra at 100 μM” value came to 0%. Moreover, on IL-6, the “BINDING IL6 % Neutra at 100 μM” value is given as 3%.

As for `O=S(=O)(c1ccccc1)n1cc(CN(CCCCNC2CCCCCC2)Cc2cccnc2F)c2ccccc21` [Compound 73, N′-cycloheptyl-N^4-((2-fluoropyridin-3-yl)methyl)-N^4-((1-(phenylsulfonyl)-1H-indol-3-yl)methyl)butane-1,4-diamine], the IC50 is 8.4 µM on TNFα, 6 µM at IL-4 and 14.9 µM at IL-13. The “Displacement (%)” value at TNFa/TNFRI interaction came to 161%. Further, the “BINDING IL4 % Neutra at 100 μM” value on IL-4 is 91.0%. In addition, at IL-13, the “BINDING IL13 % Neutra at 100 μM” value is listed as 87.2%. Also, on IL-6, the “BINDING IL6 % Neutra at 100 μM” value was determined as 0%.

With `O=S(=O)(c1ccccc1)n1cc(CN(CCCCCNC2CCCCC2)Cc2cccnc2)c2ccccc21` [Compound 34], on TNFα, the IC50 is 7.2 µM. Besides, on TNFa/TNFRI interaction, the “Displacement EC50 TNFa … Difference” value came out at 9.9 ng/mL and the “Displacement (%)” value is reported as 256%. Besides, on IL-4, the “BINDING IL4 % Neutra at 100 μM” value was 95.4% and the IC50 came out at 5.9 µM. Further, on IL-13, the “BINDING IL13 % Neutra at 100 μM” value turned out to be 97.9% and the IC50 is over 50 µM. The “BINDING IL6 % Neutra at 100 μM” value at IL-6 is reported as −4.8%.

As to `CN(CCCCN(Cc1cccnc1)Cc1cn(-c2cccc(C(F)(F)F)c2)c2ccccc12)C1CCCCC1` [Compound 23], at TNFα, the 50% inhibitory concentration (IC50) was found to be 9.3 µM. In addition, at TNFa/TNFRI interaction, the “Displacement EC50 TNFa … Difference” value came to 5.5 ng/mL and the “Displacement (%)” value was determined as 140%. For the same molecule, on IL-4, the “BINDING IL4 % Neutra at 100 μM” value worked out at 98.1% and the IC50 was 4.9 µM. Also, on IL-13, the “BINDING IL13 % Neutra at 100 μM” value amounted to 85.8% and the IC50 is over 50 µM. In addition, on IL-6, the “BINDING IL6 % Neutra at 100 μM” value was 5.6%.

In the case of `CCN(CCOCCN(Cc1cccnc1F)Cc1cn(S(=O)(=O)c2ccccc2)c2ccccc12)C1CCCCC1` [Compound 100], on TNFα, the half-inhibitory concentration (IC50) turned out to be 8 µM. Also, the “Displacement (%)” value at TNFa/TNFRI interaction turned out to be 128%. On IL-4, the “BINDING IL4 % Neutra at 100 μM” value was 87.7% and the IC50 worked out at 8.6 µM. On IL-13, the “BINDING IL13 % Neutra at 100 μM” value came out at 83.0% and the 50% inhibitory concentration (IC50) was over 50 µM. For the same molecule, at IL-6, the “BINDING IL6 % Neutra at 100 μM” value amounted to 0%.
